The values below come from ChEMBL document CHEMBL1201862, “PubChem BioAssay data set” (2004).

Activity calls are given as the source filed them.

A short description of data set [1]: viability loss of HMLE_sh_eGFP cells – cell-based, luminescence, counter-screen for HMLE_sh_ECad selective toxicity project, dose response (AID 463074).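 Note: HMLE human mammary epithelial cells expressing control shRNA against eGFP.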 The class given is functional, Homo sapiens. Background: A counterscreen serves to expose hits that act by an unwanted route or on another target.
A short description of data set [2]: Luminescence Cell-Based Dose Retest to Confirm Inhibitors of Cancer Stem Cells. [Related pubchem assays (depositor defined):AID2717, AID2721]. The class given is functional. As to conditions: Homo sapiens.
Data set [3] concerns the target T1, Intestinal-type alkaline phosphatase (Homo sapiens, UniProt P09923). Description: Dose Response confirmation of uHTS hits from a small molecule inhibitors of human intestinal alkaline phosphatase via a luminescent assay. [Related pubchem assays (depositor defined):AID2544, AID2574]. The class given is functional.
The target of data set [4] is T2, Alkaline phosphatase, tissue-nonspecific isozyme (Homo sapiens, UniProt P05186).
T2 sequence (P05186 whole entry): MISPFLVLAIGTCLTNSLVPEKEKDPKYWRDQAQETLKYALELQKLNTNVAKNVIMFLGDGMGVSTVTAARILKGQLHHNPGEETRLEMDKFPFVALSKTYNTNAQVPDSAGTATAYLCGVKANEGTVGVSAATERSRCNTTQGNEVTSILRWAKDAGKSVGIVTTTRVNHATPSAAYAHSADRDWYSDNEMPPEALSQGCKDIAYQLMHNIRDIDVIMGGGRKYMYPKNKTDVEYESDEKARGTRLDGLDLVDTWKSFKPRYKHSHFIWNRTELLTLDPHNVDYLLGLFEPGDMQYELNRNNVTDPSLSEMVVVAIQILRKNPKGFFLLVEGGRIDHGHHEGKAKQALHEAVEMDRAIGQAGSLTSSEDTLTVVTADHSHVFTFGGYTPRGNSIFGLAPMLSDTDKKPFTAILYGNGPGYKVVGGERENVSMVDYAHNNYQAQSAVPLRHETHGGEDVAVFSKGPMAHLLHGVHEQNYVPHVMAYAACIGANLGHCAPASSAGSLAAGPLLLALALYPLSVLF
Description: inhibition of tissue-nonspecific alkaline phosphatase – biochemical, dose response (AID 488882). In kind it is functional.

Data set [5] deals with Intestinal-type alkaline phosphatase (Mus musculus, UniProt P24822). Description: PubChem AID 488875. The class given is functional.
Sequence of Intestinal-type alkaline phosphatase (Mus musculus, UniProt P24822) (P24822 whole entry): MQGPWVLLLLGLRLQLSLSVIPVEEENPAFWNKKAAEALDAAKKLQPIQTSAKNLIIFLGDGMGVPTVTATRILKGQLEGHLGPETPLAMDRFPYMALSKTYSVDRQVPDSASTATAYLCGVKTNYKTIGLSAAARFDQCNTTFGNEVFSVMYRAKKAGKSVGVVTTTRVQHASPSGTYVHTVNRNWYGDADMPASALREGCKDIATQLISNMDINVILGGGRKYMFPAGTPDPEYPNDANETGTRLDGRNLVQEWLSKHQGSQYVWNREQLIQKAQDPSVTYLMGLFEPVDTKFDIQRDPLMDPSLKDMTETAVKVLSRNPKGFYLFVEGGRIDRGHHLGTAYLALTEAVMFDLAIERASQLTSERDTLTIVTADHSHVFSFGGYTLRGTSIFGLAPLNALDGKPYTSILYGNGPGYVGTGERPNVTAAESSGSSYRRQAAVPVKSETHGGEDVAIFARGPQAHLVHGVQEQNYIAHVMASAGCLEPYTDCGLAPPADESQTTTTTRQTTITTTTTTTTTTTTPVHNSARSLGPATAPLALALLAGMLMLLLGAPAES
The target of data set [6] is T1, Intestinal-type alkaline phosphatase. Description: inhibition of human intestinal alkaline phosphatase – biochemical, luminescent, uHTS hits, set 2, dose response (AID 488793). The class given is functional.
Data set [7] deals with T3, Cytochrome P450 2D6 (Homo sapiens, UniProt P10635).
T3 sequence (P10635 whole entry): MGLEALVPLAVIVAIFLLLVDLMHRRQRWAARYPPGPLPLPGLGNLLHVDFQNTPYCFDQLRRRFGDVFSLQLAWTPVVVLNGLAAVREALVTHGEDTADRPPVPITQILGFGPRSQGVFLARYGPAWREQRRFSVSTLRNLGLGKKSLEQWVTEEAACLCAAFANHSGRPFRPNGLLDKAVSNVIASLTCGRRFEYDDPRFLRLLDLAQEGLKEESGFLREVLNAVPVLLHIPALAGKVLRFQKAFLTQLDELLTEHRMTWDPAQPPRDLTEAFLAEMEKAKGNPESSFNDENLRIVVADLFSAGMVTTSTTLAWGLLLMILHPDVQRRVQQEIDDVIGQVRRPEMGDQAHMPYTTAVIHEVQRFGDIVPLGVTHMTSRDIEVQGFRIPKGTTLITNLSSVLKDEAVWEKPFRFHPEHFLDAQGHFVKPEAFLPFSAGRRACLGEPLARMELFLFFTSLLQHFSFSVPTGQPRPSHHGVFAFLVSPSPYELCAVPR
Data set [8] addresses T3, Cytochrome P450 2D6. This is another data set of the same source.
Data set [9] can be described thus: NIH3T3 cell viability loss – ATP luminescence, mouse fibroblasts, counter-screen, dose response (AID 2010).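 Note: cells exposed to compound for about 90 hours before reading.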 The class given is functional, cell-based.
A short description of data set [10]: HepG2 cell cytotoxicity, dose response, cytotoxicity control for non-replicating M. tuberculosis project (AID 489018). The class given is functional. As to conditions: Mycobacterium tuberculosis.
A short description of data set [11]: cells. The class given is functional.
The next data set relates to INS1. Description: INS-1E survival protection against cytokine death – cell-based, luminescence, retest, dose response (AID 449756).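 Note: cell death triggered by IL-1 beta plus TNF-alpha plus IFN-gamma mixture; protective hits raise ATP signal compared with cytokine alone wells.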 The class given is functional. As to conditions: Rattus norvegicus.
The target of data set [12] is C-C chemokine receptor type 6 (Homo sapiens, UniProt P51684). Description: antagonism of CCR6 beta-arrestin recruitment – cell-based, luminescent beta-arrestin readout, dose response (AID 504728). The class given is functional.
Sequence of C-C chemokine receptor type 6 (P51684 whole entry): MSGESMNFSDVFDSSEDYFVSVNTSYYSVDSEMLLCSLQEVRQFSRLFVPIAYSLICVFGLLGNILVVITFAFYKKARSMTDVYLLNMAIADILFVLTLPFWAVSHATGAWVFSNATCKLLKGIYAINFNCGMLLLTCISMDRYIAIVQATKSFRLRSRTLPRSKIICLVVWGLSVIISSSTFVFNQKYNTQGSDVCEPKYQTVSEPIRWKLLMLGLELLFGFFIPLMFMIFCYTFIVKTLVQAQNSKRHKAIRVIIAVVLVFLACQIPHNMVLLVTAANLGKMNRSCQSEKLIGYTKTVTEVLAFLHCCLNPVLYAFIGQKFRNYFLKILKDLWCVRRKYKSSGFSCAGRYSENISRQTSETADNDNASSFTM
Data set [13] relates to HEK293. Description: cells. In kind it is functional, cell-based. The conditions noted are these: Homo sapiens.
Data set [14] has as its system HEK293. Description: cells. The conditions noted are these: Homo sapiens. In kind it is functional, cell-based. This is another data set of the same source.
A short description of data set [15]: cells. In kind it is functional, cell-based.
Data set [16] relates to HEK293. Description: cells. In kind it is functional, cell-based. The conditions noted are these: Homo sapiens. This is another data set of the same source.
Data set [17] is described as follows: Vero E6 cell cytotoxicity, dose response, cytotoxicity control for non-replicating M. tuberculosis project, secondary assay (AID 492998). In kind it is functional, VeroE6. As to conditions: Vero C1008.
A further data set addresses Nonstructural protein 1 (Influenza A virus, UniProt Q194T2). In kind it is functional, Influenza A virus (A/California/07/2009(H1N1)).
For a further data set, the system named is Streptococcus. Description: GAS UMAA2166 growth inhibition – luminescence, BacTiterGlo, counter-screen for streptokinase expression inhibitor project, dose response (AID 1915).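 Note: potency for reduction of bacterial viability or growth.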 The class given is functional, organism-based.
Data set [18] addresses Nucleotide-binding oligomerization domain-containing protein 2 (Homo sapiens, UniProt Q9HC29). Description: inhibition of NOD2-driven NF-kB reporter – cell-based, luminescence, uHTS, HEK293 (AID 1566). The class given is functional.
The test system of another data set is A-375. Description: MITF: Counter assay: A375 proliferation Measured in Cell-Based System Using Plate Reader - 2084-03_Inhibitor_Dose_DryPowder_Activity. [Related pubchem assays (depositor defined):AID488944]. The conditions noted are these: Homo sapiens. In kind it is functional.
Data set [19] has as its target T4, Microphthalmia-associated transcription factor (Homo sapiens, UniProt O75030).
T4 sequence (O75030 whole entry): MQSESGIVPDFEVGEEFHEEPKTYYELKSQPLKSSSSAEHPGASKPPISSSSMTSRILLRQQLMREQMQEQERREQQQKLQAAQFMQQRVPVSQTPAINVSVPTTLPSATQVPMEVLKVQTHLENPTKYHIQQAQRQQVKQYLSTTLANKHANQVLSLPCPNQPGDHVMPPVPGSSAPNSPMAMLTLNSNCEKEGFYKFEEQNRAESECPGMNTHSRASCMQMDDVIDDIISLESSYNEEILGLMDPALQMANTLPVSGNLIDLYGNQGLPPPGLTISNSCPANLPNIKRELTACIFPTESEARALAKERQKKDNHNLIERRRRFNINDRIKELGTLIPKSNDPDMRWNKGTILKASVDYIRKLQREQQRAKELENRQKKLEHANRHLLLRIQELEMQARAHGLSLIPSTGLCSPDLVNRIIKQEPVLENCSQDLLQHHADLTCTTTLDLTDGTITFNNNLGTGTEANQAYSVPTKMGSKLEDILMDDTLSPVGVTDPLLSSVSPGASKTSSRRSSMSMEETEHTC
Description: reducers of TRPM1 reporter luminescence, concentration series – cell-based, SK-MEL-5, cherry-picked, set 3, MITF inhibitor project, dose response (AID 493073).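 Note: SK-MEL-5 melanoma cells with luciferase driven by the MITF target TRPM1 promoter.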 The class given is functional.

Data set [20] concerns HEK293. Description: NOD2 signaling inhibitors in MDP-stimulated cells, cell-based, uHTS, luminescence (AID 2001). In kind it is functional. The conditions noted are these: Homo sapiens.
Data set [21] relates to Streptococcus sp. 'group A'. Description: Streptococcus pyogenes SK(-)GAS viability under kanamycin – luminescence, BacTiterGlo, confirmation, counter-screen for streptokinase expression inhibitor project, dose response (AID 1900). The class given is functional, organism-based.
Data set [22] can be described thus: THP-1 cell cytotoxicity, dose response, cytotoxicity control for non-replicating M. tuberculosis project (AID 489025). The class given is functional.
The subject of data set [23] is HEK293. Description: inhibition of NOD1-driven NF-kB reporter – cell-based, luminescence, uHTS, primary screen (AID 1578). The conditions noted are these: Homo sapiens. In kind it is functional.
For the next data set, the target named is T5, Streptokinase A (Streptococcus pyogenes serotype M1, UniProt P10520).
T5 sequence (P10520 whole entry): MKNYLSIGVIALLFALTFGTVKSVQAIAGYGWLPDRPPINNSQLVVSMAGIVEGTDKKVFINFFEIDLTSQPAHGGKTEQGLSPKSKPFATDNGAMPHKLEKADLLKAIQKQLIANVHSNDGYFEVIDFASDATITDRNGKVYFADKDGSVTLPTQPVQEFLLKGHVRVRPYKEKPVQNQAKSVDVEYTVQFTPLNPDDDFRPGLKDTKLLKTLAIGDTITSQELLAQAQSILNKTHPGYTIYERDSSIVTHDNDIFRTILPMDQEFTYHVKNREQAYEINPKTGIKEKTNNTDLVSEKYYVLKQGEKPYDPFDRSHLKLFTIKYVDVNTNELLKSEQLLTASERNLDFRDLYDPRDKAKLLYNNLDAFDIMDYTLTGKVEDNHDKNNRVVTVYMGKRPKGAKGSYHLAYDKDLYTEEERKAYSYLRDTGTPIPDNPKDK
Description: viability-normalized secreted streptokinase activity reduction – plasminogen activation absorbance, OD405, dose response (AID 1914).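 Note: secreted streptokinase activity via plasminogen activation per viability signal from cell pellet.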 The class given is functional, Streptococcus pyogenes M1 GAS.

A short description of data set [24]: Trypanosoma cruzi growth suppression in host cells – NIH3T3 host cells, beta-gal luminescence, confirmation (AID 2044).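 Note: intracellular parasites grown in NIH/3T3 mouse fibroblasts as host cells; luminescent beta-galactosidase reporter signal from transgenic T. cruzi replicating inside host cells; inhibitors lower the luminescence signal.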 In kind it is functional, cell-based.
Data set [25] is described as follows: cells. In kind it is functional, cell-based. The source holds these as a separate data set.
The target of a further data set is Beta-galactosidase (Escherichia coli, UniProt Q8VNN2). Description: detection-enzyme interference by beta-gal modulators – biochemical, E. coli enzyme, set 3, artefact control for CCR6 antagonist project, dose response (AID 504712). In kind it is functional.
Sequence of Beta-galactosidase (Q8VNN2 whole entry): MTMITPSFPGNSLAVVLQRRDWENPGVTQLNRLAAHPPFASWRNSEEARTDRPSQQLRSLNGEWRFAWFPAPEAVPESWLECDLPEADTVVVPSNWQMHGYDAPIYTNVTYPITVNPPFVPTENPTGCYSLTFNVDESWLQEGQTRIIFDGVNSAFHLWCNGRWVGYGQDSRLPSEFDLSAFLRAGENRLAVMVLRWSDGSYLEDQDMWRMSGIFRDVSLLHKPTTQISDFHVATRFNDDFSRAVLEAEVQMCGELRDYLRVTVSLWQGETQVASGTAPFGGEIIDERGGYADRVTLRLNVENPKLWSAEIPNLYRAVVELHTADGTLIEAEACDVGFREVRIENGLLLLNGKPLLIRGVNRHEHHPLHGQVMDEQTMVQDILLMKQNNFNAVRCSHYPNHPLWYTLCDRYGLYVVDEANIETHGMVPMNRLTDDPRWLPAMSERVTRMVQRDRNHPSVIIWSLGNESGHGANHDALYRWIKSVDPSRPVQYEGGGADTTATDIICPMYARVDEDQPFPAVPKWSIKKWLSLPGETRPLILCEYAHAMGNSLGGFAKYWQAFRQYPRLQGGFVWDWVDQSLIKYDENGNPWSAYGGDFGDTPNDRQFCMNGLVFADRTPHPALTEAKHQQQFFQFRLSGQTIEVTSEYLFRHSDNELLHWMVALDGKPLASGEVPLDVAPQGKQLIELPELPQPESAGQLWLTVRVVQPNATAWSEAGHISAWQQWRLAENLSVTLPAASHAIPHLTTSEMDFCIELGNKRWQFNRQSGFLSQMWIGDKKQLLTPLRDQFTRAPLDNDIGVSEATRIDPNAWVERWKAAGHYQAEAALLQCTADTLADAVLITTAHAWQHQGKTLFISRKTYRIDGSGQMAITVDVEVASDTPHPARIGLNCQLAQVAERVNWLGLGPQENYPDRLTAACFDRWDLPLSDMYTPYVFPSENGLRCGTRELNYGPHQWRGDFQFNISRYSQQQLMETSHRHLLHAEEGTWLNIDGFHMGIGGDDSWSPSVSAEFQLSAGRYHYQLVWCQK

T1 sequence (P09923 whole entry): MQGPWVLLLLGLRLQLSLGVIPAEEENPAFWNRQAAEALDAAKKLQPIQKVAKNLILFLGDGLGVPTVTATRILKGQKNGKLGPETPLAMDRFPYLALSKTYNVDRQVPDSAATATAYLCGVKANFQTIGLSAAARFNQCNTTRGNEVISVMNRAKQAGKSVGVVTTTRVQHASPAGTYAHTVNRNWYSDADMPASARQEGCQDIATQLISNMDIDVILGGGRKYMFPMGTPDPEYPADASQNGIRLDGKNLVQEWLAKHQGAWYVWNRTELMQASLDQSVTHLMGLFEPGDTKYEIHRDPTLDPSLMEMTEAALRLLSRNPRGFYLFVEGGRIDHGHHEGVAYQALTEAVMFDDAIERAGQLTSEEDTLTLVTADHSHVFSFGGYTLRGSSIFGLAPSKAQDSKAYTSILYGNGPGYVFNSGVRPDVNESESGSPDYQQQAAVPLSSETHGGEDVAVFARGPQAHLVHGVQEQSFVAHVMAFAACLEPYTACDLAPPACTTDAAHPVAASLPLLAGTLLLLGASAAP
Sequence of Nonstructural protein 1 (Q194T2 whole entry): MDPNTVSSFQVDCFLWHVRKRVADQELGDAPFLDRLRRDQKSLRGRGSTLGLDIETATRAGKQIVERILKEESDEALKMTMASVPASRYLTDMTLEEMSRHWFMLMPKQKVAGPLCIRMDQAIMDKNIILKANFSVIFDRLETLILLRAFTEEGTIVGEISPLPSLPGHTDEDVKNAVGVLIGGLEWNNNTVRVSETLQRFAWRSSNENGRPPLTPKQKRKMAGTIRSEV
Sequence of Nucleotide-binding oligomerization domain-containing protein 2 (Q9HC29 whole entry, the tested form may be a part): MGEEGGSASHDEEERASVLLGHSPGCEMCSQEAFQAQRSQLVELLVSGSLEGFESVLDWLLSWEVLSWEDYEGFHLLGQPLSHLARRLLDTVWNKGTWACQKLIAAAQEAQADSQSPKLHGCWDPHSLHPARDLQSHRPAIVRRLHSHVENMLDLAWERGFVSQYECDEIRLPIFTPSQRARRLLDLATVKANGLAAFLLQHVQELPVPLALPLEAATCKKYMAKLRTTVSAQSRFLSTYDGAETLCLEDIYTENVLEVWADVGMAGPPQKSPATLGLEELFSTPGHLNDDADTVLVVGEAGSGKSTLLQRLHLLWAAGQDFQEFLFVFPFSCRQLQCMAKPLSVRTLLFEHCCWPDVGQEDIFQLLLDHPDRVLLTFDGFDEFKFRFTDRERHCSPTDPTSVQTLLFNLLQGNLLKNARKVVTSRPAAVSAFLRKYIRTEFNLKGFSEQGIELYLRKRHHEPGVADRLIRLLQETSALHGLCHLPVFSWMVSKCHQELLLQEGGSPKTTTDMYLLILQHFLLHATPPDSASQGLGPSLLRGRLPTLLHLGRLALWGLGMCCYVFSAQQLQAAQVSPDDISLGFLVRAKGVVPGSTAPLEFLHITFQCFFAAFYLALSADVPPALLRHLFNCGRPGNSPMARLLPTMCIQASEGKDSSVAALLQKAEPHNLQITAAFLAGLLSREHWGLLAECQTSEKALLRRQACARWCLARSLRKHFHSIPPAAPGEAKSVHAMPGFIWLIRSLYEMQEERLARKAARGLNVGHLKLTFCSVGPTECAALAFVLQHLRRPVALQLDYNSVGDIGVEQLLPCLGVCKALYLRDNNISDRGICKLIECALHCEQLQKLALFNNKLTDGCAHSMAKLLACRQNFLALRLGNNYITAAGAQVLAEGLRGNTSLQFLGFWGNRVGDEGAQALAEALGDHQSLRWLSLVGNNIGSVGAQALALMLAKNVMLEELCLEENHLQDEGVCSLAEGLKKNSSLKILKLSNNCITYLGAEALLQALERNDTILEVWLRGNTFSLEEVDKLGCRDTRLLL

With `COc1ccc(-c2ccc3oc(-c4ccc(OC)cc4)c(C#CC4(O)CCCCC4)c3c2)cc1`, the AC50 in data set [1] was 29.8 µM (active); in data set [2] it was 5.32 µM (active).
For the compound `O=C(O)c1ccccc1C(=O)Nc1cc(-c2ccccc2)n[nH]1`, the IC50 was 10.5 µM (inactive) in [3], 32.7 µM (active) in data set [4] and 58.5 µM (active) in data set [6]. In data set [5], the EC50 is > 100 µM (inactive).
`CC(C)(C)c1o[nH]c(=O)c1C[C@H](N)C(=O)O`: the AC50 is 1.58 µM (inconclusive) on Cytochrome P450 2D6 [7] and “inconclusive” at Cytochrome P450 2D6 [8].
Take `O=[N+]([O-])c1cc(Cl)cc(/C=N\Nc2ccccn2)c1O`: the EC50 in data set [9] is 5.6 µM (active); in “cells [15]” it was 11.8 µM (active); in the data set with Streptococcus, 7.53 µM (active); in data set [18], > 20 µM (inactive); in [21], 3.56 µM (active); in the data set on HEK293 [23], 9.12 µM (active). Also, the results for the EC50 (on Streptokinase A; in [24]; in the data set “cells [25]”) were 11.1 µM (active), 0.204 µM (active) and > 350 µM (not active), respectively. Moreover, the figures for the CC50 in data set [10], in data set [17] and in [22] were 0.987 µM (active), 1.24 µM (active) and 0.147 µM (active), respectively. For the same compound, the IC50 was 6.12 µM (active) in the data set “cells [11]”; > 66.6 µM (inactive) in data set [12]; > 20 µM (inactive) in the data set with HEK293 [13]; > 20 µM (inactive) with HEK293 [14]; > 20 µM (inactive) with HEK293 [16]; 3.89 µM (active) on Nonstructural protein 1. The IC50 in the data set with HEK293 [20] was > 20 µM (inactive); on Beta-galactosidase, > 66.6 µM (inactive). Moreover, the AC50 was 0.964 µM (active) in the data set on INS1, 40.6 µM (active) with A-375 and 4.49 µM (active) in data set [19].

Usually AC50 stands for the concentration giving half of the maximal activity seen. By IC50 is commonly meant the concentration that gives 50% inhibition. Broadly, the EC50 is the concentration that produces a half-maximal response. A word on the CC50: it is the concentration at which the toxic effect on the cells reaches its halfway point.
